Assay results as given in PubChem BioAssay AID651630 (Sanford-Burnham Center for Chemical Genomics, 2012).
The source made the active and inactive calls.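 The calls were made as follows: active = lipid-stain IC50 at or below a set limit, with nuclear-stain toxicity IC50 at least five times higher; inactive = the rest.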

Key:
DAPI = assay: TAG lipid buildup inhibition with viability readout – cell-based, panel, Nile Red and DAPI fluorescence, H9c2, dose response (AID 651630); conditions: H9c2 cells, DAPI nuclear fluorescence (cytotoxicity counter-readout), oleic acid;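 also: cells exposed to compound overnight before fixation and staining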
TAG = assay: as above; conditions: H9c2 cells, Nile Red TAG fluorescence, oleic acid

| Structure (SMILES) | IC50 cytotoxicity (DAPI nuclear signal decrease) (DAPI; mean of runs) | IC50 cytotoxicity (DAPI nuclear signal decrease) (DAPI; run 1) | IC50 cytotoxicity (DAPI nuclear signal decrease) (DAPI; run 2) | IC50 (TAG; mean of runs) | IC50 (TAG; run 1) | IC50 (TAG; run 2) |
| --- | --- | --- | --- | --- | --- | --- |
| C=CCn1c(SCc2c(C)noc2C)nc2sc3c(c2c1=O)CCC(C)C3 (configuration not stated) | > 25 µM (inactive) | > 25 µM | > 25 µM | > 25 µM (inactive) | > 25 µM | > 25 µM |
| O=C(CSc1nc2ccc(Nc3nc(N4CCOCC4)nc(N4CCOCC4)n3)cc2s1)Nc1ccccc1Cl | > 25 µM (inactive) | > 25 µM | > 25 µM | 8.88 µM | 7.69 µM | 10.1 µM |
| COc1cc(OC)c2c(-c3ccccc3)cc(=O)oc2c1C(CCN1CCCCC1)c1ccc2c(c1)OCO2 (configuration not stated) | > 25 µM (inactive) | > 25 µM | > 25 µM | 22.9 µM (inactive) | 20.9 µM | 24.9 µM |
| CCOC(=O)c1[nH]c(C)c(C(=O)Nc2ccccc2C)c1C | > 25 µM (inactive) | > 25 µM | > 25 µM | > 25 µM (inactive) | > 25 µM | > 25 µM |
| NC1=NC[C@H](Cc2ccccc2)N1CCc1cc(C(F)(F)F)cc(C(F)(F)F)c1 | > 25 µM (inactive) | > 25 µM | > 25 µM | > 25 µM (inactive) | > 25 µM | > 25 µM |
| CNC(=S)NN=C(C)CCCC(C)=NNC(=S)NC |  | 11.3 µM | > 25 µM | > 25 µM (inactive) | > 25 µM | > 25 µM |
| c1ccc(N(c2ccccc2)c2nc(N3CCCC3)nc(-n3ccnc3)n2)cc1 | > 25 µM (inactive) | > 25 µM | > 25 µM | 17.7 µM (inactive) | 19.1 µM | 16.3 µM |
| CCOc1ccc2nc(NC(=O)C3CCCN(S(=O)(=O)c4c(C)noc4C)C3)sc2c1 (configuration not stated) | > 25 µM (inactive) | > 25 µM | > 25 µM | 5 µM | 4.04 µM | 5.97 µM |
| C=CCC[C@@H](Cc1ccc(F)cc1)C(=O)OC[C@@H](NC(=O)[C@@H](CC=C)CC(=O)N[C@H](CO)Cc1ccccc1)C(C)(C)C | > 25 µM (inactive) | > 25 µM | > 25 µM | 9.45 µM | 8.65 µM | 10.2 µM |
| O=C(CCl)N(CCCNC(=O)C(F)(F)F)c1ccc([N+](=O)[O-])cc1 | > 25 µM (inactive) | > 25 µM | > 25 µM | > 25 µM (inactive) | > 25 µM | > 25 µM |
| Cc1ccc(NC(=O)c2cc([N+](=O)[O-])ccc2NCc2cccnc2)cc1Cl | > 25 µM (inactive) | > 25 µM | > 25 µM | 14 µM | 10.5 µM | 17.6 µM |
| O=C1CCCC2=C1C1(CCCC1)N=C(Nc1nc3cc(-c4ccccc4)ccc3o1)N2 | > 25 µM (inactive) | > 25 µM | > 25 µM | 17.5 µM (inactive) | 15.5 µM | 19.5 µM |
| COCCCn1c(N)c(C(=O)Nc2ccccc2)c2nc3ccccc3nc21 | > 25 µM (inactive) | > 25 µM | > 25 µM | 13.5 µM | 11.8 µM | 15.2 µM |
| COC(=O)Nc1nc2ccc(SC(C)C)cc2[nH]1 | > 25 µM (inactive) | > 25 µM | > 25 µM |  | > 25 µM | 13.9 µM |
| O=C(Nc1ccccc1)c1ccc(NCC2CCCO2)c(S(=O)(=O)N2CCOCC2)c1 (configuration not stated) | > 25 µM (inactive) | > 25 µM | > 25 µM | > 25 µM (inactive) | > 25 µM | > 25 µM |
| CCCC(=O)Nc1nc2ccc(NC(=O)c3ccccc3F)cc2s1 | > 25 µM (inactive) | > 25 µM | > 25 µM | 13 µM | 12.4 µM | 13.6 µM |
| COc1cc(C)c2sc3ccccc3c(=O)c2c1NCCN(C)C | > 25 µM (inactive) | > 25 µM | > 25 µM | 9.19 µM | 7.48 µM | 10.9 µM |

| Structure (SMILES) | IC50 cytotoxicity (DAPI nuclear signal decrease) (DAPI; mean of runs) | IC50 cytotoxicity (DAPI nuclear signal decrease) (DAPI; run 1) | IC50 cytotoxicity (DAPI nuclear signal decrease) (DAPI; run 2) | IC50 (TAG; mean of runs) | IC50 (TAG; run 1) | IC50 (TAG; run 2) |
| --- | --- | --- | --- | --- | --- | --- |
| O=C(Nc1nc2ccc(C(=O)N3CCCCC3)cc2s1)C1CCCCC1 | > 25 µM (inactive) | > 25 µM | > 25 µM | 15.4 µM (inactive) | 10.6 µM | 20.2 µM |
| Cc1noc(C)c1CSc1nc2[nH]ncc2c(=O)n1-c1ccccc1 |  | > 25 µM | > 25 µM | 4.41 µM | 3.41 µM | 5.41 µM |
| O=C(C[C@H]1C[C@H](C(=O)N2CCCCC2)[C@@]2(CCc3ccccc3)c3[nH]c4ccc(Cl)cc4c3CCN2C1=O)NCc1cccc(C(F)(F)F)c1 |  | > 25 µM | > 25 µM | 3.78 µM | 2.76 µM | 4.8 µM |
| COC(=O)[C@@]1(Cc2ccc(F)cc2)[C@H]2c3cc(C(=O)N4CCCC4)n(CCCNc4ncc(C(F)(F)F)cc4Cl)c3C[C@H]2CN1C(=O)c1ccccc1 |  | > 25 µM | > 25 µM | 2.58 µM | 2.76 µM | 2.41 µM |
| COC(=O)[C@]1(Cc2ccccc2)N[C@H](c2ccc(-c3cccc(Cl)c3)c(OC)c2)[C@@H]2C(=O)N(C)C(=O)[C@@H]21 | > 25 µM (inactive) | > 25 µM | > 25 µM | > 25 µM (inactive) | > 25 µM | > 25 µM |
| COc1cc(OC)nc(Nc2nc(C(N)Cc3ccc(Cl)cc3)cs2)n1 (configuration not stated) | > 25 µM (inactive) | > 25 µM | > 25 µM |  | > 25 µM | 23.4 µM |
| CCCCNC(=O)C(=O)Nc1ccc2c(c1)N(S(=O)(=O)c1cccs1)CCC2 | > 25 µM (inactive) | > 25 µM | > 25 µM |  | > 25 µM | 9.53 µM |
| COc1cc(C2c3cc4c(cc3OC(C)(N3CCCC3)C2C)OCO4)cc(OC)c1OC (configuration not stated) | > 25 µM (inactive) | > 25 µM | > 25 µM | 13.8 µM | 10.4 µM | 17.1 µM |
| Clc1cccc(Nc2nc(-c3ccncc3)nc3ccccc23)c1 | > 25 µM (inactive) | > 25 µM | > 25 µM |  | 18.9 µM | > 25 µM |
| Cc1cc(C)n(-c2nc3c(c(=O)[nH]c(=O)n3C)n2CC(O)COc2ccc(Cl)cc2Cl)n1 (configuration not stated) | > 25 µM (inactive) | > 25 µM | > 25 µM |  | 11.2 µM | > 25 µM |
| Cc1ccc(/C=N/NC(=O)c2c(C)nc3ccc(Br)cn23)cc1 | > 25 µM (inactive) | > 25 µM | > 25 µM | > 25 µM (inactive) | > 25 µM | > 25 µM |
| Nc1c(C(=O)NC2CCCC2)c2nc3ccccc3nc2n1/N=C/c1cccnc1 | > 25 µM (inactive) | > 25 µM | > 25 µM | 19 µM (inactive) | 15 µM | 23 µM |
| CCCCSc1nc2ccc(Nc3nc(N4CCOCC4)nc(N4CCOCC4)n3)cc2s1 |  | > 25 µM | > 25 µM | 4.78 µM | 4.98 µM | 4.59 µM |
| O=C1NC(Cc2ccc(O)cc2)c2nc3ccc(F)cc3c(=O)n2-c2cc3ccccc3cc21 (configuration not stated) |  | > 25 µM | > 25 µM | 2.45 µM | 2.11 µM | 2.79 µM |
| CN(C)CCNC(=O)c1cccc2ccc(-c3ccc(-c4ccccc4)cc3)nc12 | > 25 µM (inactive) | > 25 µM | > 25 µM | 12.5 µM | 10.6 µM | 14.4 µM |
| COC(=O)C1=C(c2cc3ccccc3s2)C[C@@H]2CC[C@H]1N2C(=O)N1CCOCC1 | > 25 µM (inactive) | > 25 µM | > 25 µM | > 25 µM (inactive) | > 25 µM | > 25 µM |
| O=C(Nc1ccc(-c2csc(Nc3ccccc3)n2)cc1)c1cccc(C(F)(F)F)c1 | > 25 µM (inactive) | > 25 µM | > 25 µM |  | 15.3 µM | > 25 µM |
